Several values for one entry are separate records, joined by “and”; a condition that tells them apart may be missing. Equal entries are not always repeated. Structures can show the parent of a compound that is named as a salt. Where two headings read alike, the source gives them in different places.
Key:
[1] = biological target: T1, mMOR (Mus musculus, UniProt P42866); experiment: G protein activation BRET assay; format: cell-based; details: for Fig. S5h concentration-response data point: Log [Drug], single replicate values
T1 construct: expressed in transfected cells; host or cells: HEK-293T, transient (PEI)
T1 sequence (P42866 whole entry): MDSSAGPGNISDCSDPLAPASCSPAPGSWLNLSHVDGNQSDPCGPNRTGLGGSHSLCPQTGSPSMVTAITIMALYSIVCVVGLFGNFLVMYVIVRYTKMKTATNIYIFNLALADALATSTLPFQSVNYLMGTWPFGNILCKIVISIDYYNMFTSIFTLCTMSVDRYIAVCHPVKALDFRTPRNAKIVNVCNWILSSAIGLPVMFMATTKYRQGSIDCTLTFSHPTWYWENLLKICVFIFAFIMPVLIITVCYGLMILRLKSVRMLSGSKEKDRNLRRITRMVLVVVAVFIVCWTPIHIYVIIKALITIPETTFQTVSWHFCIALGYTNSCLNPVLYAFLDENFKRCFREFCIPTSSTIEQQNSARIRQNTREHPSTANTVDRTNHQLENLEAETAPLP

[2] = biological target: T2, rKOR (Rattus norvegicus, UniProt P34975); experiment: Nanobody Nb33 sensor recruitment BRET assay; format: cell-based; details: for response, Fig. S5c concentration-response point (replicates): Log [Drug]
T2 construct: signal peptide (N); expressed in transfected cells; host or cells: HEK-293T, transient (PEI)
T2 sequence (P34975 whole entry): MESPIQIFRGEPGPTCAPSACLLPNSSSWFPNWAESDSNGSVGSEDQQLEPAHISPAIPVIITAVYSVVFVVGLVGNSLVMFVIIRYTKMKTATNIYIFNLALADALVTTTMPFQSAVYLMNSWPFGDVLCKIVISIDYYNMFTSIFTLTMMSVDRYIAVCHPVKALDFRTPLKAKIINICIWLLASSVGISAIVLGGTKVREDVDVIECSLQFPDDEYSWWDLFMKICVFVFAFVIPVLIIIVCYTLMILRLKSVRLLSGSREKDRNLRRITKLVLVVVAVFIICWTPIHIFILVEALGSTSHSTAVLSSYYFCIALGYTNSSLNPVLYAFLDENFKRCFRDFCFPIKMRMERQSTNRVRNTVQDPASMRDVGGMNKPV

[3] = biological target: T3, hSERT (Homo sapiens, UniProt P31645); experiment: hSERT inhibition assay (APP+ fluorescence uptake); format: cell-based
T3 construct: expressed in transfected cells
T3 sequence (P31645 whole entry): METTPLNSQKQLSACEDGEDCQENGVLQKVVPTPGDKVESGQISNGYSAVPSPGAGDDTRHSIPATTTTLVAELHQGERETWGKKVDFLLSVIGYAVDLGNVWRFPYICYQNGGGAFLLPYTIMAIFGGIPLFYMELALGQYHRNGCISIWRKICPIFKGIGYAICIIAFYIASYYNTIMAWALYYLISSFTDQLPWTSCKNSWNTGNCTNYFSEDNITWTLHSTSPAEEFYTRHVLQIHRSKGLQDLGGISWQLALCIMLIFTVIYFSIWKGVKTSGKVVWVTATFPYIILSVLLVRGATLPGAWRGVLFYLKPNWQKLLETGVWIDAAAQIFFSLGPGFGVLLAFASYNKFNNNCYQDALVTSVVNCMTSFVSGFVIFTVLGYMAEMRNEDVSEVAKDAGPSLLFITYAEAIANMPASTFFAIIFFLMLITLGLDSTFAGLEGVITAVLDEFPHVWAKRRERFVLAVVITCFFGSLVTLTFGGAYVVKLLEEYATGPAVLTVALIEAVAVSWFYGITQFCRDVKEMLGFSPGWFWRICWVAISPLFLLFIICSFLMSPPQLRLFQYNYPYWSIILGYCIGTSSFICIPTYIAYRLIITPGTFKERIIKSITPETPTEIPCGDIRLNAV
Experimental: Stably transfected hSERT-HEK cellular cultures were maintained in Dulbecco’s Minimal Essential Medium (DMEM) with GlutaMAX (Gibco-Thermo Fisher Scientific, Waltham, MA) with the following additions: 10% (v/v) Fetal Bovine Serum (FBS, Atlanta Biologicals, Flowery Branch, GA), 100 U/mL Penicillin 10 μg/mL Streptomycin (Gibco-Thermo Fisher Scientific, Waltham, MA), and 500 μg/mL Geneticin (G418) (Sigma Aldrich, St. Louis, MO). Singly transfected cells were seeded at a density of 0.09 × 10^6 cells/well in poly-D-Lysine (Sigma Aldrich, St. Louis, MO) coated white solid-bottom 96-well plates (Greiner Bio-One, Kremsmünster, Austria). Cells were grown for 44 h in aqueous media at 37 °C under 5% CO2 atmosphere. […] A final solution of 120 μL of PBS was finally added to all corresponding wells for cell maintenance before measuring fluorescence uptake (BioTek H1MF plate reader (BioTek Instruments, Winooski, VT), APP+ excitation and emission wavelengths 436 and 500 nm). Recorded inhibitor values were first subtracted from vehicular values to quantify the respective fluorescence uptake. Data were analyzed using the dose-response-inhibitor nonlinear curve fitting model (log[inhibitor] vs response (four parameters) in Graphpad Prism 10 (Graphpad Software, La Jolla, CA).

[4] = biological target: T4, human nicotinic acetylcholine receptor (nAChR α3β4) (Homo sapiens, UniProt P30926+P32297); experiment: nAChR α3β4 inhibition, electrophysiology (commercial); format: cell-based
T4 construct: purchased contracted research organization (eurofinsdiscoveryservices.com) item CYL8057IF2
T4 sequence (P32297 32-505): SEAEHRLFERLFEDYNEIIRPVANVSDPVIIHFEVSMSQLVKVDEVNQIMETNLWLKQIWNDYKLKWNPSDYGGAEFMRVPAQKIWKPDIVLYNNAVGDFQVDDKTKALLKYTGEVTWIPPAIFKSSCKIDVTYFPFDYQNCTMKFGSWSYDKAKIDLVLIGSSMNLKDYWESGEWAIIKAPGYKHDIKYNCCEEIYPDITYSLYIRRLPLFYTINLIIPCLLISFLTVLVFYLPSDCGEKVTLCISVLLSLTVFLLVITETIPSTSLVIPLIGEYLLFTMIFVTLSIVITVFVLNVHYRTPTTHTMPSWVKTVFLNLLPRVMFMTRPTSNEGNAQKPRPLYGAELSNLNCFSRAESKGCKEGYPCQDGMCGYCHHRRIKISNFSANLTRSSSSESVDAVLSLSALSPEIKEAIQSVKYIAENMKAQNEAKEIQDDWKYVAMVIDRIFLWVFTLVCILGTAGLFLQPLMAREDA
T4 sequence (P30926 22-498): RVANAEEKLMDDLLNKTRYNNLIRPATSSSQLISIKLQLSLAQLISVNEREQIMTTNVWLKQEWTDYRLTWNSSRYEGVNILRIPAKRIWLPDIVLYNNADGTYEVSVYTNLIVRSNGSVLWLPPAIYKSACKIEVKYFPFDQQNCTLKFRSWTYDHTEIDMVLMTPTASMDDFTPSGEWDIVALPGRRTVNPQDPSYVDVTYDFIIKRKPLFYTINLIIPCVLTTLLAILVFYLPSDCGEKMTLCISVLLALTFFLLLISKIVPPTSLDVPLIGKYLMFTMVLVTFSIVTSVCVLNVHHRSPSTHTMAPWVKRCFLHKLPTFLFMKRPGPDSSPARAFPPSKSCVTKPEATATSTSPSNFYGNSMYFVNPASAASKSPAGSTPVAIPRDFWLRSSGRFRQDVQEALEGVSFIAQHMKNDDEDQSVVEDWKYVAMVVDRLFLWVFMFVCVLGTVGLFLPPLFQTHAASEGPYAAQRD

[5] = biological target: T5, hKOR (Homo sapiens, UniProt P41145); experiment: Nanobody Nb33 sensor recruitment BRET assay; format: cell-based
T5 construct: expressed in transfected cells; host or cells: HEK-293T, transient (PEI)
T5 sequence (P41145 whole entry): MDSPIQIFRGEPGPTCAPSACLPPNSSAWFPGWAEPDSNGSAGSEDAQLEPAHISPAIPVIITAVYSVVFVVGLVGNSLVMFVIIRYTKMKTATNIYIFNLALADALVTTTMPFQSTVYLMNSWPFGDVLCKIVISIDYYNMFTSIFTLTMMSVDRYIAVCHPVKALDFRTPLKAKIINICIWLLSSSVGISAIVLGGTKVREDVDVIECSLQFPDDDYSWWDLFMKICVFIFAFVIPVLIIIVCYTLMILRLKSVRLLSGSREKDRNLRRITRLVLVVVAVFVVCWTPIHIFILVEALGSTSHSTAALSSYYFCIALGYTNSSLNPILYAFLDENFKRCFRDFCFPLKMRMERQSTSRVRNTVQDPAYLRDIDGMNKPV

[6] = Noribogaine clinical dose escalation data (plasma concentration, QT); format: in vivo; details: from reported clinical total plasma concentrations and own human plasma protein binding
[7] = Pharmacokinetic study in mice (plasma and brain), with estimated free drug concentrations; format: in vivo, mouse; details: mice, 10 mg/kg s.c., individual animals, 10 mg/kg

CCC1CC2CC3c4[nH]c5ccc(O)cc5c4CCN(C2)C13 (stereo not drawn) [Noribogaine, Noribogaine hydrochloride]
Emax [1]: 19% | EC50 ([1]; (95% CI)): 9.11 µM | Fig. S5h concentration-response data point ([1]; M = -4): 24.8885 and 26.6264 and 27.7428 and 17.4963 and -8.212 and 30.4244 and 10.6283 and 6.222 and 21.9832 | Fig. S5h concentration-response data point ([1]; M = -5): 8.23 and 17.0849 and 17.7259 and 22.4715 and 22.153 and 9.821 and 3.187 and 0.3566 and 4.1 | Fig. S5h concentration-response data point ([1]; M = -6): 4.604 and 7.207 and -5.062 and 6.292 and -3.562 and -1.853 and 2.1627 and 6.968 and -3.361 | Fig. S5h concentration-response data point ([1]; M = -7): 5.516 and -3.12 and 0.3751 and -1.392 and 9.617 and 0.0554 and -3.657 and -2.623 and -4.7725 | Fig. S5h concentration-response data point ([1]; M = -8): 2.807 and -9.751 and -4.108 and 4.434 and 1.624 and 11.894 and 1.215 and 7.908 and -0.803 | Fig. S5h concentration-response data point ([1]; M = -9): 3.672 and 14.0917 and -2.71 and 1.993 and 2.042 and -8.571 and -5.966 and 3.235 and -0.5438 | Fig. S5h concentration-response data point ([1]; M = -10): 5.694 and 7.45 and -0.02465 and -4.39 and 8.693 and -12.0081 and -1.935 and 3.572 and 2.108 | Fig. S5h concentration-response data point ([1]; M = -11): 0.01325 and 7.439 and 24.776 and 1.616 and -6.541 and -6.127 and 16.1632 and 10.3257 and 7.821 | response, Fig. S5c concentration-response point (replicates) ([2]; M = -4): 0.6832 and -2.533 and 1.849 and 9.706 and 9.178 and 4.549 and -7.153 and 2.312 and 4.8409 | response, Fig. S5c concentration-response point (replicates) ([2]; M = -5): 9.7994 and 6.733 and 8.435 and 9.706 and 10.7702 and 15.0341 and 0.9856 and -0.8825 and 4.299 | response, Fig. S5c concentration-response point (replicates) ([2]; M = -6): 9.626 and 6.623 and 8.559 and 3.312 and 9.163 and -0.7272 and 9.077 and 6.531 and 9.714 | response, Fig. S5c concentration-response point (replicates) ([2]; M = -7): 8.087 and 5.264 and 16.9405 and 8.98 and 10.0186 and 11.1512 and 4.05 and 6.477 and 19.1494 | response, Fig. S5c concentration-response point (replicates) ([2]; M = -8): 10.1716 and 9.452 and 9.651 and 4.904 and -0.3201 and 10.6815 and 14.8896 and 2.949 and 7.869 | response, Fig. S5c concentration-response point (replicates) ([2]; M = -9): 2.743 and 3.189 and 8.9111 and 2.535 and 1.402 and 3.813 and 4.639 and -0.2876 and 6.5008 | response, Fig. S5c concentration-response point (replicates) ([2]; M = -10): 4.986 and 10.7522 and 12.8464 and -2.314 and -2.554 and 4.868 and 5.9 and 1.688 and 15.6928 | response, Fig. S5c concentration-response point (replicates) ([2]; M = -11): 8.177 and 6.107 and 7.7052 and 7.712 and 6.632 and -6.719 and 26.9849 and 11.0819 and 18.0666 | % effect at 100 µM ([2]; at 100 µM): < 4% | Emax [3]: 104% | IC50 [4]: 5 µM | IC50 ([4]; electrophysiology, n = 1, (95% CI)): 4.96 µM | % effect at 100 µM [5]: < 3% | estimated free plasma noribogaine Cmax ([6]; 60 mg oral dose, mild QT effect): approximately 100 nM | estimated free plasma noribogaine Cmax ([6]; 180 mg oral dose): 300 to 400 nM | Brain Concentration (total) ([7]; 0.083 h): 6610 nM and 8950 nM | Free Brain Concentration ([7]; 0.083 h): 780 nM and 1057 nM | Free Plasma Concentration ([7]; 0.083 h): 2258 nM and 2308 nM and 1083 nM | Plasma Concentration (total) ([7]; 0.083 h): 4830 nM and 2260 nM and 4720 nM | Brain Concentration (total) ([7]; 0.25 h): 14100 nM and 14820 nM | Free Brain Concentration ([7]; 0.25 h): 1664 nM and 1749 nM | Free Plasma Concentration ([7]; 0.25 h): 2314 nM and 3247 nM | Plasma Concentration (total) ([7]; 0.25 h): 6790 nM and 6100 nM | Brain Concentration (total) ([7]; 0.5 h): 18560 nM and 18390 nM | Free Brain Concentration ([7]; 0.5 h): 2190 nM and 2170 nM | Free Plasma Concentration ([7]; 0.5 h): 2561 nM and 3671 nM | Plasma Concentration (total) ([7]; 0.5 h): 7680 nM and 6990 nM | Brain Concentration (total) ([7]; 1 h): 11300 nM and 11040 nM | Free Brain Concentration ([7]; 1 h): 1334 nM and 1303 nM | Free Plasma Concentration ([7]; 1 h): 1924 nM and 1899 nM | Plasma Concentration (total) ([7]; 1 h): 3970 nM and 4110 nM | Brain Concentration (total) ([7]; 2 h): 4770 nM and 6380 nM | Free Brain Concentration ([7]; 2 h): 563 nM and 752 nM | Free Plasma Concentration ([7]; 2 h): 1638 nM and 938 nM | Plasma Concentration (total) ([7]; 2 h): 1960 nM and 2670 nM | Brain Concentration (total) ([7]; 4 h): 2930 nM and 1780 nM and 5540 nM | Free Brain Concentration ([7]; 4 h): 346 nM and 211 nM and 654 nM | Free Plasma Concentration ([7]; 4 h): 1067 nM and 684 nM and 289 nM | Plasma Concentration (total) ([7]; 4 h): 1430 nM and 610 nM and 2230 nM | Brain Concentration (total) ([7]; 8 h): 810 nM and 720 nM and 210 nM | Free Brain Concentration ([7]; 8 h): 95 nM and 85 nM and 24 nM
